From paper PMC12424289, “Programmable Nanostructure Assembly of a Paclitaxel Derivative Enables Tunable Anticancer Therapy via Hydrogen Bond Engineering” (ACS Nano, 2025) come the findings set out here.

In general, IC50 refers to the concentration that gives 50% inhibition.

The subject of series [1] is human ovarian SKOV3 cells. Description: CCK8 antiproliferation assay, SKOV3. Type of series: cell-based. The conditions noted are these: SK-OV-3, SKOV3, 48 h treatment. The method, then:
(§1) The mouse breast cancer cell line 4T1 and the human ovarian cancer cell line SKOV3 were cultured in RPMI 1640 medium supplemented with 10% fetal bovine serum, 100 units·mL^–1 penicillin, and 100 μg·mL^–1 streptomycin. The human lung cancer cell line A549 and the luciferase-expressing human colorectal carcinoma cell line HCT116-Luc were cultured in high-glucose DMEM medium supplemented with 10% fetal bovine serum, 100 units·mL^–1 penicillin, and 100 μg·mL^–1 streptomycin. All cell lines were maintained at 37 °C in a Steri-Cycle 371 incubator (Thermo Scientific, USA) with a humidified atmosphere of 5% CO2. Only cells between passages 5 and 15 were used for cell-based experiments.
(§2) The antiproliferative activity of PTP was evaluated using the Cell Counting Kit-8 (CCK8) assay. PTX solution served as a positive control. Cell suspensions were prepared at a density of 3 × 10^4 cells·mL^–1 and seeded in 96-well plates at a volume of 100 μL per well. The plates were incubated for 24 h to allow cell attachment and growth. Subsequently, the culture media were replaced with fresh media containing varying concentrations of PTX or PTP solutions (100 μL per well), and the cells were incubated for an additional 48 h (n = 3). Control wells received fresh culture media alone (n = 3). […] Finally, the absorbance was measured at 450 nm using a microplate reader (Synergy H1, BioTek, USA). […]

Another series deals with mouse breast 4T1 cells. Kind of series: CCK8 antiproliferation assay, 4T1. Type of series: cell-based. As to conditions: 4T1, 48 h treatment. The method, then:
as §1, §2

A short description of series [2]: Solid-state storage stability of PTP. Type of series: physicochemical. The conditions noted are these: stored at −20 °C for 6 months; initial purity 98.5%. The method, then: For solid-state stability, 5.0 mg PTP was sealed in glass bottles and stored under controlled conditions in stability chambers (MMM Climacell-E, Germany). The samples were stored at 40 ± 2 °C and 75 ± 5% relative humidity, and 25 ± 2 °C and 60 ± 5% RH. Additional samples were stored at 4 °C and −20 °C in a refrigerator (BCD-610W, Siemens, Germany). At scheduled intervals, triplicate samples from each condition were analyzed for purity by HPLC.

The nature of series [3]: Appearance on dissolving/dispersing in water or excipient solution. Format: physicochemical. The conditions noted are these: 5.0 mg·mL^–1 drug; with 260.0 mg·mL^–1 PEG400 or 20.0 mg·mL^–1 HA where named. The method, then: PTP self-assemblies were prepared by adding 5.0 mg of PTP to 1.0 mL of a water, followed by vortexing for 1 min. For PTP@PEG coassemblies, 260.0 mg of PEG400 was mixed with 1.0 mL of the chosen water-based solution. This PEG400 solution was then added to 5.0 mg of PTP powder, and the resulting mixture was vortexed for 1 min. PTP@HA coassemblies were prepared by first dispersing 20.0 mg of HA in 1.0 mL of the selected water-based solution. Following this step, the resulting HA solution was added to 5.0 mg of PTP powder. The final mixture was vortexed for 1 min. To prepare the PTX@PEG control system, 1.3 g of PEG400 was mixed with 5.0 mL of water. Then, 25.0 mg of PTX was added to the solution, and the mixture was vortexed for 1 min. Similarly, the PTX@HA control system was prepared by dispersing 100.0 mg of HA in 5.0 mL of water. Subsequently, 25.0 mg of PTX was added, and the mixture was vortexed for 1 min.

Another series deals with human lung A549 cells. Kind of series: CCK8 antiproliferation assay, A549. As to conditions: A549, 48 h treatment. Type of series: cell-based. The method, then: as §1, §2
In general terms: Tetrazolium assays rely on reduction of a dye to a coloured formazan, in cell work by metabolically active cells.

A further series is described as follows: Stability in rat plasma. Format: in vitro ADME. The method, then: For plasma stability studies, a PTP or PTP@PEG dispersion (1.2 mg·mL^–1, PTP-equivalent) was diluted with plasma to a final concentration of 100.0 μg·mL^–1. Plasma was obtained from male rat blood by centrifugation (1600 × g, 15 min). Aliquots (100 μL each) were incubated at 37 °C with agitation at 100 rpm, and samples were collected at designated time points in triplicate. Proteins were precipitated by adding 200 μL acetonitrile, followed by vortex mixing and centrifugation at 17 000 rpm and 4 °C for 30 min. The resulting supernatants were analyzed by HPLC.

Series [4] relates to human colon HCT116-Luc cells. Kind of series: CCK8 antiproliferation assay, HCT116-Luc. The conditions noted are these: 48 h treatment. Format: cell-based. The method, then:
as §1, §2

Series [5] can be described thus: Surface tension measurement / critical aggregation concentration. Format: physicochemical. The method, then:
Surface tension measurements were conducted at 25 °C using a drop shape analyzer (DSA30S; Kruss, Germany). Starting with a 5.0 mg·mL^–1 PTP dispersion, serial dilutions were prepared to obtain a range of lower concentrations. Following overnight assembly, the PTP dispersion was drawn into a syringe (HENKE-JECT, Germany), and a droplet was suspended from the needle tip. The outer diameter of the needle (1.825 mm) served as the reference for image analysis. Images of the droplet were captured, and the surface tension was calculated using the Young–Laplace equation based on the droplet’s shape.

Another series deals with Balb/c mice. Description: Maximum tolerated dose / survival in mice. Format: in vivo, mouse. As to conditions: iv, PTP 100 mg·kg^–1, 14 days.
Series [6] in a line: Degradation of PTP assemblies in aqueous solution (HPLC). Format: physicochemical. As to conditions: 37 °C. The method, then:
PTP, PTP@PEG, and PTP@HA (200 μL, 0.1 mg·mL^–1) solutions were sealed in ampules and incubated at 37 °C with agitation at 100 rpm. Samples were collected in triplicate at scheduled intervals, treated with acetonitrile, vortexed for 1 min, and analyzed using HPLC. Degradation rate constants (k) were calculated by plotting the natural logarithm of the concentration ratio (ln c/c0) versus time, with the slopes of the linear regression plots representing the rate constants.

For `CC(=O)O[C@H]1C(=O)[C@@]2(C)[C@H]([C@H](OC(=O)c3ccccc3)[C@]3(O)C[C@H](OC(=O)[C@H](OC(=O)CCP(=O)(O)O)[C@@H](NC(=O)c4ccccc4)c4ccccc4)C(C)=C1C3(C)C)[C@]1(OC(C)=O)CO[C@@H]1C[C@@H]2O` [PTP, PTX-2’–OOC-P], the IC50 in [1] was 31.2 nM; with mouse breast 4T1 cells, 82.4 nM; in the series on human lung A549 cells, 13.2 nM; in [4], 12.5 nM. For the same molecule, the purity after storage in series [2] is recorded as 98.1%. Further, the “appearance of the system” value in [3] is “transparent solution”. Further, the “degradation faster than PTP@PEG” value in the series “Stability in rat plasma” (rat plasma, 37 °C) amounted to 1.2 fold. In the series “Stability in rat plasma” (rat plasma, 37 °C, 100 μg·mL^–1 PTP-equivalent), the “degradation rate constant (k) in plasma” value was found to be 0.23 h^–1. Moreover, the parent compound left in the series “Stability in rat plasma” (rat plasma, 37 °C, after 10 h) was determined as 10.4%. The degraded in plasma result in “Stability in rat plasma” (within 10 h, 100.0 μg·mL^–1) is on record as “approximately 90%”. The “water–air surface tension (plateau)” value in [5] (above 1.0 mg·mL^–1) is recorded as “approximately 55.0 mN·m^–1”. The same molecule registered a critical aggregation concentration in [5] (water, 25 °C, inflection of surface tension versus log concentration) of 0.6 mg·mL^–1. In addition, the fatalities result in the series with Balb/c mice is on record as “No fatalities”. Also, the “degradation rate constant (k)” value in [6] (0.1 mg·mL^–1 in 5% glucose (5% G)) is 2.3 × 10^–2 day^–1; in [6] (0.1 mg·mL^–1 in phosphate buffer saline (PBS)) it was 1.3 day^–1; in series [6] (0.1 mg·mL^–1 in saline), 3.2 × 10^–2 day^–1; in series [6] (0.1 mg·mL^–1 in water), 8.0 × 10^–2 day^–1.
